We go through three molecules from patent publication US6436890B1, “Antimicrobial detergent composition” (Inui Corporation, priority 1999, dated 2002).

What all share (type): cell-based
Test [1] concerns Staphylococcus aureus JCI (MRSA). The test can be described thus: Antimicrobial power against MRSA, MIC by Nutrient Broth liquid medium dilution method. Particulars: for MIC: Staphylococcus aureus JCI (MRSA); for Antimicrobial activity against MRSA (in words): at a low concentration. On the procedure:
Antimicrobial power against MRSA (Methicillin-resistant Staphylococcus aureus) of N,N′-hexamethylenebis (4-carbamoyl-1-decylpyridinium bromide) (“Dimer 38” manufactured by INUI CORPORATION) and 4,4′-(tetramethylenecarbonyldiamino)bis(1-decyl-pyridinium bromide) (“Dimer 136” manufactured by INUI CORPORATION). L-broth (5 ml) was inoculated with Staphylococcus aureus JC1 and, after incubation at 37° C. for 18 hours, the MIC (minimum inhibitory concentration) of Dimer 38 and Dimer 136 was measured according to the Nutrient Broth liquid medium dilution method.

For test [2], the system named is Pseudomonas aeruginosa ATCC 10145. On the procedure: (§1) L-broth (5 ml) was inoculated with each bacteria and, after incubation at 37° C. for 18 hours, the MIC (minimum inhibitory concentration) was measured according to the Nutrient Broth liquid medium dilution method.
Test [3] concerns Escherichia coli K12W3110. As to the method:
as §1

Test [4] relates to Bacillus subtilis ATCC 6633. On the procedure:
as §1

Test [5] has as its system Staphylococcus aureus IFO 12732. As to the method:
as §1

Where two headings read alike, the source gives them in different places.

Take “4,4′-(tetramethylenedicarbonyldiamino)bis(1-decylpyridinium bromide) [Dimer 136]”: in test [1], the MIC is reported as 0.6 ppm and the “Antimicrobial activity against MRSA (in words)” value is on record as “demonstrate an antimicrobial activity against MRSA”.

For `CCCCCCCCCC[n+]1ccc(C(=O)NCCCCCCNC(=O)c2cc[n+](CCCCCCCCCC)cc2)cc1.[Br-].[Br-]` [Dimer 38, N,N′-Hexamethylenebis(4-carbamoyl-1-decylpyridinium bromide)], in test [1], the MIC came out at 0.2 ppm and the “Antimicrobial activity against MRSA (in words)” value is recorded as “demonstrate an antimicrobial activity against MRSA”.

As to `CC(=O)[O-].CC(=O)[O-].CCCCCCCCCC[n+]1ccc(C(=O)NCCCCCCNC(=O)c2cc[n+](CCCCCCCCCC)cc2)cc1` [Dimer 38A, N,N′-hexamethylenebis(4-carbamoyl-1-decylpyridinium acetate)], the MIC in test [2] (procedure 1 of 7, P. aeruginosa ATCC 10145) is given as 3.1 ppm; in test [2] (procedure 2 of 7, P. aeruginosa ATCC 10145), 3.1 ppm; in test [2] (procedure 3 of 7, P. aeruginosa ATCC 10145), 6.3 ppm; in test [2] (procedure 4 of 7, P. aeruginosa ATCC 10145), 6.3 ppm; in test [2] (procedure 5 of 7, P. aeruginosa ATCC 10145), 6.3 ppm; in test [2] (procedure 6 of 7, P. aeruginosa ATCC 10145), 6.3 ppm. The MIC in test [2] (procedure 7 of 7, P. aeruginosa ATCC 10145) is 3.1 ppm; in test [3] (procedure 1 of 7, E. coli K12W3110), 1.6 ppm; in test [3] (procedure 2 of 7, E. coli K12W3110), 0.8 ppm; in test [3] (procedure 3 of 7, E. coli K12W3110) it was 0.8 ppm; in test [3] (procedure 4 of 7, E. coli K12W3110), 0.8 ppm; in test [3] (procedure 5 of 7, E. coli K12W3110) it was 1.6 ppm. For the same molecule, the MIC is given as 1.6 ppm in test [3] (procedure 6 of 7, E. coli K12W3110); 1.6 ppm in test [3] (procedure 7 of 7, E. coli K12W3110); 0.8 ppm in test [4] (procedure 1 of 7, B. subtilis ATCC 6633); 0.2 ppm in test [4] (procedure 2 of 7, B. subtilis ATCC 6633); 0.4 ppm in test [4] (procedure 3 of 7, B. subtilis ATCC 6633); 0.2 ppm in test [4] (procedure 4 of 7, B. subtilis ATCC 6633). For the same molecule, the MIC came to 0.4 ppm in test [4] (procedure 5 of 7, B. subtilis ATCC 6633); 0.4 ppm in test [4] (procedure 6 of 7, B. subtilis ATCC 6633); 0.4 ppm in test [4] (procedure 7 of 7, B. subtilis ATCC 6633); 0.1 ppm in test [5] (procedure 1 of 7, S. aureus IFO 12732); 0.01 ppm in test [5] (procedure 2 of 7, S. aureus IFO 12732); 0.05 ppm in test [5] (procedure 3 of 7, S. aureus IFO 12732). Moreover, the MIC amounted to 0.01 ppm in test [5] (procedure 4 of 7, S. aureus IFO 12732); 0.1 ppm in test [5] (procedure 5 of 7, S. aureus IFO 12732); 0.1 ppm in test [5] (procedure 6 of 7, S. aureus IFO 12732); 0.05 ppm in test [5] (procedure 7 of 7, S. aureus IFO 12732).
